Some targets named below: D(1A) dopamine receptor (Homo sapiens, UniProt P21728); D(3) dopamine receptor (Homo sapiens, UniProt P35462); Histamine H3 receptor (Homo sapiens, UniProt Q9Y5N1).
The target of experiment [1] is cGMP-inhibited 3',5'-cyclic phosphodiesterase 3A (Homo sapiens, UniProt Q14432). Format: functional.
The target in experiment [2] is 3',5'-cyclic-AMP phosphodiesterase 4A (Homo sapiens, UniProt P27815). Format: functional.
A further experiment has as its target T1, Progesterone receptor (Homo sapiens, UniProt P06401).
T1 sequence (P06401 whole entry): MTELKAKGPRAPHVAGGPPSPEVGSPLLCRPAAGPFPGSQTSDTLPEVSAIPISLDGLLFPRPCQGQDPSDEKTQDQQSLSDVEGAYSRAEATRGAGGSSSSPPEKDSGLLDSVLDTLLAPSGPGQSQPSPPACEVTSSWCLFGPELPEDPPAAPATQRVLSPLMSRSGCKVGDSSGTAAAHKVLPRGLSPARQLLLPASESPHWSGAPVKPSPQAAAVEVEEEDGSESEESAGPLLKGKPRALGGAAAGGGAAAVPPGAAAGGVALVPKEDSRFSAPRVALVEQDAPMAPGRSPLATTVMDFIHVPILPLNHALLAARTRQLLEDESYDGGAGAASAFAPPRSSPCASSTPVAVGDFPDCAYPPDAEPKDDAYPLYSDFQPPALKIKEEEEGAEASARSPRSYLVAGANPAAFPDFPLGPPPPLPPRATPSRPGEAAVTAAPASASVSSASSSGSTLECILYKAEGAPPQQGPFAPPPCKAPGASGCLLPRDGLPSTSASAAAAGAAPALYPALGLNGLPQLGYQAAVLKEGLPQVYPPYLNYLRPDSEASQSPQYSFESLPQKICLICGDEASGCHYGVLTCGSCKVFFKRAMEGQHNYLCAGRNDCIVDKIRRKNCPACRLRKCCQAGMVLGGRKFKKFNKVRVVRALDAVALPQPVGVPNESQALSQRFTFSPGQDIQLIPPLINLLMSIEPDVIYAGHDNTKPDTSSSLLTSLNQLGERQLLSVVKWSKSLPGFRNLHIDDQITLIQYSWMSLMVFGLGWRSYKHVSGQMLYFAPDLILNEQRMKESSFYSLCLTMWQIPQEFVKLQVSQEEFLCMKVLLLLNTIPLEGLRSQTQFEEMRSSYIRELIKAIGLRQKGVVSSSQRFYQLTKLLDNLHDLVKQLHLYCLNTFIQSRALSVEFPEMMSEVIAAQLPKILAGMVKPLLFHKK

Experiment [3] addresses 5-hydroxytryptamine receptor 2B (Homo sapiens, UniProt P41595). It counts as functional, cell-based.
Experiment [4] addresses Sodium-dependent noradrenaline transporter (Homo sapiens, UniProt P23975).
The target of experiment [5] is T2, 5-hydroxytryptamine receptor 1A (Homo sapiens, UniProt P08908).
T2 sequence (P08908 whole entry): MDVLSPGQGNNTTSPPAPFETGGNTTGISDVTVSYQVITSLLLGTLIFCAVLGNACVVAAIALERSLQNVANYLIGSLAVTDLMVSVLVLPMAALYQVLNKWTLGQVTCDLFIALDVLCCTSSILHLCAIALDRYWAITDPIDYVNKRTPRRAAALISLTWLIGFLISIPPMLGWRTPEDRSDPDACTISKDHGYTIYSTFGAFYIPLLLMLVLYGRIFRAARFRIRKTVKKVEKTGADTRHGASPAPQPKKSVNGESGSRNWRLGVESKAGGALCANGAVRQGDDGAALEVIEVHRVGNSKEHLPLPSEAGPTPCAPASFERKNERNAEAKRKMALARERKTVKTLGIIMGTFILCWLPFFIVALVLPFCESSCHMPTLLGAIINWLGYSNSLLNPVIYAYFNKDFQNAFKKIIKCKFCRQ

For a further experiment, the target named is Bile salt export pump (Homo sapiens, UniProt O95342). Format: functional.
Experiment [6] addresses T3, Thromboxane A2 receptor (Homo sapiens, UniProt P21731).
T3 sequence (P21731 whole entry): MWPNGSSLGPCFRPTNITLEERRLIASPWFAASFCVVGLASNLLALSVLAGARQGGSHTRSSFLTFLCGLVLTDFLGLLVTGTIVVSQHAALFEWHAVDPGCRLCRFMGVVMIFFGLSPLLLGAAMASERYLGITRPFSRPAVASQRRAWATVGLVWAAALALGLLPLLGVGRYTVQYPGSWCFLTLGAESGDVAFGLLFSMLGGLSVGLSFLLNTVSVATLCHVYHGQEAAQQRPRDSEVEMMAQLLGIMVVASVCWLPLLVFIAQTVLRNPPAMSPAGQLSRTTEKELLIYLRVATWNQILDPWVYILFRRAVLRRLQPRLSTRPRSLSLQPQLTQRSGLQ
It counts as functional, cell-based.

The target of experiment [7] is T4, Alpha-2A adrenergic receptor (Homo sapiens, UniProt P08913).
T4 sequence (P08913 whole entry): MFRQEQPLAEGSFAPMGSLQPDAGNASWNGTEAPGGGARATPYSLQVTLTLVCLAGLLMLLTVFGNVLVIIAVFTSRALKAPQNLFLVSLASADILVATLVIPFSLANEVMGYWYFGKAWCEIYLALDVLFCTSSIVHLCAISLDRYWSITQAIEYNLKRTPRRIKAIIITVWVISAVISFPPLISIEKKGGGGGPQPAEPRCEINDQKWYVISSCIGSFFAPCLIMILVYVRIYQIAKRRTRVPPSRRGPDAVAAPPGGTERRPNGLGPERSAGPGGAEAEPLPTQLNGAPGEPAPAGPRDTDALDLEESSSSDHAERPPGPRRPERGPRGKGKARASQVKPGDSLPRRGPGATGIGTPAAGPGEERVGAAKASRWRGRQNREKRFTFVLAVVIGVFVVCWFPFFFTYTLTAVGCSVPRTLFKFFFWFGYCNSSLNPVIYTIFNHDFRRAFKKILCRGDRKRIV

A further experiment has as its target Acetylcholinesterase (Homo sapiens, UniProt P22303). Format: functional.
The target of experiment [8] is Prostaglandin G/H synthase 1 (Homo sapiens, UniProt P23219). Format: functional.
Experiment [9] addresses T3, Thromboxane A2 receptor. It counts as functional, cell-based. This is another data set of the same source.
Note: assay procedure not described here.

Chain of cGMP-inhibited 3',5'-cyclic phosphodiesterase 3A (Q14432 whole entry): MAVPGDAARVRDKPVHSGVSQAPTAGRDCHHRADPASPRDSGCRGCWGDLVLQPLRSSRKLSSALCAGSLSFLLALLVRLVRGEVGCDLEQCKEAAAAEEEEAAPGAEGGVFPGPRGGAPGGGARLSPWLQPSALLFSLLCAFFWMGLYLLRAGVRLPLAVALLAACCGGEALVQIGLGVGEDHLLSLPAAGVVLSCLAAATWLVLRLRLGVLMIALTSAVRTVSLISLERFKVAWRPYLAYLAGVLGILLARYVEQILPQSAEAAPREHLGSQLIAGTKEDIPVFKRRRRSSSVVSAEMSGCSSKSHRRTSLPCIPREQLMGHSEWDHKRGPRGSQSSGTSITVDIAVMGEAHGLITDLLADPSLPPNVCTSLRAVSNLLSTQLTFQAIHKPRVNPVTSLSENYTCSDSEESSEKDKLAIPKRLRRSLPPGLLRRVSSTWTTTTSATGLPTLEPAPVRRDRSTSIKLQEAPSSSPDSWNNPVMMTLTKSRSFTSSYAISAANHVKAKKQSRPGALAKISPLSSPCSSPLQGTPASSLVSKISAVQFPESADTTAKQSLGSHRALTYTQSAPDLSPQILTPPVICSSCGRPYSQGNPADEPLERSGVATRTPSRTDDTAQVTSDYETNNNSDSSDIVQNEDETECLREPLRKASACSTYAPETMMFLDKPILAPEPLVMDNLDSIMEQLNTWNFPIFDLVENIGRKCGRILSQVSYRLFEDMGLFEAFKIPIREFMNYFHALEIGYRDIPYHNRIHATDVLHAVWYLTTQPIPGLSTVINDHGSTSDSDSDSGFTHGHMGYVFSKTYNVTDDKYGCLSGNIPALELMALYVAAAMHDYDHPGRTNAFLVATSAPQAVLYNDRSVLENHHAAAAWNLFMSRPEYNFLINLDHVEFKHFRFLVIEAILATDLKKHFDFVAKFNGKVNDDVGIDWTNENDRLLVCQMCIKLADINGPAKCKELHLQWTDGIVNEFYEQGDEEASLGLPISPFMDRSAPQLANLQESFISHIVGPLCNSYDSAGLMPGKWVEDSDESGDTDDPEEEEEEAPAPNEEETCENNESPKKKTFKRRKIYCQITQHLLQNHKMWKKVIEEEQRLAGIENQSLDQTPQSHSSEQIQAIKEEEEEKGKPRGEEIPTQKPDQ
Chain of Prostaglandin G/H synthase 1 (P23219 whole entry): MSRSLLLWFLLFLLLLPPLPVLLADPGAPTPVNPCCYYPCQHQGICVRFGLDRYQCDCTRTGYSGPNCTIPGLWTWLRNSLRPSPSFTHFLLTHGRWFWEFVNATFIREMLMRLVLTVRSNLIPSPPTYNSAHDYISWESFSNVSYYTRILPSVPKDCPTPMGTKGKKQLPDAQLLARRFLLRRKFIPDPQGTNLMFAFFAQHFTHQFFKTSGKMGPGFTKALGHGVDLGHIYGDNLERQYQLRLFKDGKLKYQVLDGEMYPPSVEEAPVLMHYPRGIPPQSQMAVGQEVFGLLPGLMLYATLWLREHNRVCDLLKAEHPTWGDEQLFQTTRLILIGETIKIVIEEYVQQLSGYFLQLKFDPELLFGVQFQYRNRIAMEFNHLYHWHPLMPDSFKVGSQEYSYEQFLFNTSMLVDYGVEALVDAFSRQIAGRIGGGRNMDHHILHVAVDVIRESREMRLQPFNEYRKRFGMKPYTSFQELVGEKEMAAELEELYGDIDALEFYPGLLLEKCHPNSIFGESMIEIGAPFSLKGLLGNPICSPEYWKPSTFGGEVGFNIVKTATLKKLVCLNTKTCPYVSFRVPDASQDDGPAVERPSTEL
Chain of Sodium-dependent noradrenaline transporter (P23975 whole entry): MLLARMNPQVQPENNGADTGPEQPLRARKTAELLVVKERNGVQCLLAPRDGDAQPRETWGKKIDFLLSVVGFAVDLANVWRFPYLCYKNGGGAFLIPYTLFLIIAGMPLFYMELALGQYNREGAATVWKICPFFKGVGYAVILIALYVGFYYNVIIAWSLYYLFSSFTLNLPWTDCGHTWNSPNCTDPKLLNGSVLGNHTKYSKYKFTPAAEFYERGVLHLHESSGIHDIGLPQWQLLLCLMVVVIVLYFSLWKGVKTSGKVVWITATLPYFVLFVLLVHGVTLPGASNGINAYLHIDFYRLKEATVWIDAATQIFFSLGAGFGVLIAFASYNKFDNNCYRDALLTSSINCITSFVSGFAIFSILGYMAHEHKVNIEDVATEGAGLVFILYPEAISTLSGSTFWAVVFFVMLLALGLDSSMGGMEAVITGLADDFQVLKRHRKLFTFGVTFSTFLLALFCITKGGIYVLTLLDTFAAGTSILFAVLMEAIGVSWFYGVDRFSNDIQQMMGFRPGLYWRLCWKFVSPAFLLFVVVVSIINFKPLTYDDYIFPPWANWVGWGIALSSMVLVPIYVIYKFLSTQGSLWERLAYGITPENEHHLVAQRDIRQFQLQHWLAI
Chain of Bile salt export pump (O95342 whole entry): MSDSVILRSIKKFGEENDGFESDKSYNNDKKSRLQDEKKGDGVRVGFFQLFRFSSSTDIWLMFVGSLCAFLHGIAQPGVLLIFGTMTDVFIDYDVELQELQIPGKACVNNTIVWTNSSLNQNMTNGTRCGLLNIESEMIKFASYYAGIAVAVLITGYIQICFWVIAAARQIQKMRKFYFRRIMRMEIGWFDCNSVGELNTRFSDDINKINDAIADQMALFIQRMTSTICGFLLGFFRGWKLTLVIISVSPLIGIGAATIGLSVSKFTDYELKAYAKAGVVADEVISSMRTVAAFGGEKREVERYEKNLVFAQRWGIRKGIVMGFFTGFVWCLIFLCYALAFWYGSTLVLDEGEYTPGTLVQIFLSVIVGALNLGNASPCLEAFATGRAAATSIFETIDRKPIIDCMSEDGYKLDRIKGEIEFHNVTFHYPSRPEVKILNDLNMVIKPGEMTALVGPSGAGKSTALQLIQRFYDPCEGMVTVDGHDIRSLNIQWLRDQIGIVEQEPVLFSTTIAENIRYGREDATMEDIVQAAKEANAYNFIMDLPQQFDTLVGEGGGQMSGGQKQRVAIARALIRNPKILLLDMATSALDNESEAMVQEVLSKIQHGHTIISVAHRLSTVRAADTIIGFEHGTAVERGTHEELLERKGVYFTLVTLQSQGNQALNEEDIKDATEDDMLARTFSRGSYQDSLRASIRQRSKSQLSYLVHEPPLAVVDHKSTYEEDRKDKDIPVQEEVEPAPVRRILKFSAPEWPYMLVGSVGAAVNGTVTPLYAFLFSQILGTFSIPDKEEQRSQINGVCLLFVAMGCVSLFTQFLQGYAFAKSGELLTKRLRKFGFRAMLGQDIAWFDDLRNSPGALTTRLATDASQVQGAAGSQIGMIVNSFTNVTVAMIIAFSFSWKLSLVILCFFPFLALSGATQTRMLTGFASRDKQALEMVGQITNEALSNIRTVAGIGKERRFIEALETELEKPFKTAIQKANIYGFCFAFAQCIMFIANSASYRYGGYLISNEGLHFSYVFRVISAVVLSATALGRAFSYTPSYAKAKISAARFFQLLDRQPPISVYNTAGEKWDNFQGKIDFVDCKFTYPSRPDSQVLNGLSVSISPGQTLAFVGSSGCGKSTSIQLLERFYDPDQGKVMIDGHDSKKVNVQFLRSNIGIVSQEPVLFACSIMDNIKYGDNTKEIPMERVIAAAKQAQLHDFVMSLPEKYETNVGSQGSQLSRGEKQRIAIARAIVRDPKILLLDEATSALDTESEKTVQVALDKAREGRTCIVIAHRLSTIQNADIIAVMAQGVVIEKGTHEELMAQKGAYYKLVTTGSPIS
Chain of D(3) dopamine receptor (P35462 whole entry): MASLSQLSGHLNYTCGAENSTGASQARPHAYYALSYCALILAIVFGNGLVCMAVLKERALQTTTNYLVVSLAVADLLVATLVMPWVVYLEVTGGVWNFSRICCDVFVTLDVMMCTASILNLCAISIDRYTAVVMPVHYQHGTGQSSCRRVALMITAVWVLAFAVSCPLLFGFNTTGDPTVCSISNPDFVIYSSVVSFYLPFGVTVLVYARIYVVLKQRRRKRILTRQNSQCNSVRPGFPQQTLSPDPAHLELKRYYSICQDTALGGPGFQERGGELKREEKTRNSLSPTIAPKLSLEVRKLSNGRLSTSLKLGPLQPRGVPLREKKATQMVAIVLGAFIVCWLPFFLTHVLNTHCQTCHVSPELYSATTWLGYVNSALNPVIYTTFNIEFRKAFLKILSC
Chain of Acetylcholinesterase (P22303 whole entry): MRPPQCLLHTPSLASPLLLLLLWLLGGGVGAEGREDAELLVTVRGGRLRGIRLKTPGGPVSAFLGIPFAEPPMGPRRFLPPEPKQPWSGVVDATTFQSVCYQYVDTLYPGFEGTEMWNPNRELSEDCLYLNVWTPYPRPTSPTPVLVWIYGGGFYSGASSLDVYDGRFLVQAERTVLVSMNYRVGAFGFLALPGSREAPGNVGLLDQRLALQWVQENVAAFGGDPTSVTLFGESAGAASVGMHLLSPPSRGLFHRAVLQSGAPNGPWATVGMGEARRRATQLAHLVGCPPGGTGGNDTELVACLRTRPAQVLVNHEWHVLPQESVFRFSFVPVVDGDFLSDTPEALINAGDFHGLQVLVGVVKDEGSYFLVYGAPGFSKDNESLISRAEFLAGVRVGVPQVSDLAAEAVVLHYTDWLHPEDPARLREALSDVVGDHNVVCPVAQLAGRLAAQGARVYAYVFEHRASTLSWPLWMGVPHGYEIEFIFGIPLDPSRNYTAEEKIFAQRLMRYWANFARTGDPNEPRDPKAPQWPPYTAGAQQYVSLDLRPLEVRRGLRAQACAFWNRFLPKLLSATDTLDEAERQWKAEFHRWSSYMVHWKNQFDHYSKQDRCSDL

Turning to `CC(C)(O)CNc1nc(Nc2ccnc(C(F)(F)F)c2)nc(-c2cccc(C(F)(F)F)n2)n1` [ENASIDENIB], the AC50 (in experiment [1]; in [2]; on Progesterone receptor; in [3]; in experiment [4]; in experiment [5]) was more than 30 µM in each case. In addition, the AC50 (as a rule, the concentration giving half of the maximal activity seen) is more than 30 µM at D(1A) dopamine receptor; 5.3 µM on Bile salt export pump; 7.09 µM at Thromboxane A2 receptor [6]; more than 30 µM at D(3) dopamine receptor; more than 30 µM in [7]; more than 30 µM at Acetylcholinesterase. Also, the AC50 is 9.18 µM in experiment [8], more than 30 µM at Thromboxane A2 receptor [9] and more than 30 µM at Histamine H3 receptor.

For `CC(C)C[C@H](NC(=O)CNC(=O)c1cc(Cl)ccc1Cl)B(O)O` [IXAZOMIB], the AC50 in experiment [1] was more than 30 µM; in experiment [2], 29.9 µM; on Progesterone receptor, more than 30 µM; in [3], more than 30 µM; in [4] it was more than 30 µM; in [5], more than 30 µM. Moreover, the AC50 at D(1A) dopamine receptor was more than 30 µM; on Bile salt export pump it was more than 300 µM; on Thromboxane A2 receptor [6] it was more than 30 µM; on D(3) dopamine receptor, more than 30 µM; in experiment [7], more than 30 µM; at Acetylcholinesterase, more than 30 µM. The half-maximal activity concentration (AC50) (in experiment [8]; on Thromboxane A2 receptor [9]; on Histamine H3 receptor) was more than 30 µM each time.

On to `C[N+](C)(C)C[C@H](O)CC(=O)[O-]` [LEVOCARNITINE], for which the AC50 (in [1]; in [2]; on Progesterone receptor; in experiment [3]; in experiment [4]; in [5]) was more than 30 µM in each case. Besides, the AC50 was more than 30 µM on D(1A) dopamine receptor; more than 300 µM at Bile salt export pump; more than 30 µM at Thromboxane A2 receptor [6]; more than 30 µM at D(3) dopamine receptor; more than 30 µM in experiment [7]; more than 30 µM on Acetylcholinesterase. The AC50 (in [8]; on Thromboxane A2 receptor [9]; on Histamine H3 receptor) was more than 30 µM each time.

As to `Cc1ccccc1C(=O)Nc1ccc(C(=O)N2CCCC(N(C)C)c3ccccc32)cc1` (stereo not given) [MOZAVAPTAN], the concentration at half-maximal activity (AC50) is more than 30 µM in experiment [1]; more than 30 µM in experiment [2]; more than 30 µM at Progesterone receptor; more than 30 µM in experiment [3]; more than 30 µM in [4]; 5.8 µM in experiment [5]. Besides, the AC50 was more than 30 µM on D(1A) dopamine receptor; 14 µM at Bile salt export pump; more than 30 µM on Thromboxane A2 receptor [6]; more than 30 µM at D(3) dopamine receptor; more than 30 µM in experiment [7]; more than 30 µM at Acetylcholinesterase. Moreover, the half-maximal activity concentration (AC50) (in experiment [8]; on Thromboxane A2 receptor [9]; on Histamine H3 receptor) was more than 30 µM in each case.

Regarding `O=C(O)c1cc(/N=N/c2ccc(O)c(C(=O)O)c2)ccc1O` [OLSALAZINE], the AC50 was more than 30 µM in [1]; 13.2 µM in experiment [2]; more than 30 µM on Progesterone receptor; more than 30 µM in experiment [3]; more than 30 µM in experiment [4]; more than 30 µM in [5]. The half-maximal activity concentration (AC50) on D(1A) dopamine receptor was more than 30 µM; on Bile salt export pump, more than 300 µM; at Thromboxane A2 receptor [6] it was more than 30 µM; on D(3) dopamine receptor, more than 30 µM; in experiment [7] it was more than 30 µM; on Acetylcholinesterase it was more than 30 µM. For the same compound, the AC50 (in [8]; on Thromboxane A2 receptor [9]; on Histamine H3 receptor) was more than 30 µM throughout.

In the case of `CCOC(=O)C1=C[C@@H](OC(CC)CC)[C@H](NC(C)=O)[C@@H](N)C1` [OSELTAMIVIR], the AC50 (in experiment [1]; in [2]; at Progesterone receptor; in [3]; in experiment [4]; in experiment [5]) was more than 30 µM throughout. Moreover, the concentration at half-maximal activity (AC50) at D(1A) dopamine receptor was more than 30 µM; on Bile salt export pump it was more than 300 µM; at Thromboxane A2 receptor [6] it was more than 30 µM; on D(3) dopamine receptor, more than 30 µM; in experiment [7], more than 30 µM; at Acetylcholinesterase, more than 30 µM. In addition, the concentration at half-maximal activity (AC50) (in experiment [8]; at Thromboxane A2 receptor [9]; on Histamine H3 receptor) was more than 30 µM in each case.

As to `Cc1onc(-c2ccccc2)c1C(=O)N[C@@H]1C(=O)N2[C@@H]1SC(C)(C)[C@@H]2C(=O)O` [OXACILLIN], the AC50 (in [1]; in [2]; at Progesterone receptor; in experiment [3]; in [4]; in experiment [5]) was more than 30 µM each time. The AC50 on D(1A) dopamine receptor was more than 30 µM; on Bile salt export pump, 220 µM; at Thromboxane A2 receptor [6], more than 30 µM; at D(3) dopamine receptor, more than 30 µM; in experiment [7] it was more than 30 µM; at Acetylcholinesterase it was more than 30 µM. Also, the AC50 (in experiment [8]; at Thromboxane A2 receptor [9]; at Histamine H3 receptor) was more than 30 µM each time.

On to `OC[C@@H](O)[C@@H](O)[C@H](O)[C@@H](O)CO` [SORBITOL], for which the AC50 (in [1]; in experiment [2]; on Progesterone receptor; in [3]; in experiment [4]; in experiment [5]) was more than 30 µM each time. Further, the concentration at half-maximal activity (AC50) at D(1A) dopamine receptor was more than 30 µM; on Bile salt export pump, more than 300 µM; on Thromboxane A2 receptor [6] it was more than 30 µM; at D(3) dopamine receptor it was more than 30 µM; in [7], more than 30 µM; at Acetylcholinesterase it was more than 30 µM. The AC50 (in [8]; at Thromboxane A2 receptor [9]; at Histamine H3 receptor) was more than 30 µM each time.

Consider `CCCC(CCC)C(=O)O` [VALPROIC ACID], for which the AC50 (in experiment [1]; in [2]; on Progesterone receptor; in experiment [3]; in experiment [4]; in experiment [5]) was more than 30 µM each time. For the same compound, the AC50 on D(1A) dopamine receptor was more than 30 µM; at Bile salt export pump it was more than 300 µM; on Thromboxane A2 receptor [6], more than 30 µM; on D(3) dopamine receptor it was more than 30 µM; in experiment [7], more than 30 µM; on Acetylcholinesterase it was more than 30 µM. The AC50 (in experiment [8]; at Thromboxane A2 receptor [9]; on Histamine H3 receptor) was more than 30 µM in each case.
